Measured values taken from PubChem BioAssay (NCI).
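A five-concentration, 48-hour dose response in 96-well plates underlies each endpoint, interpolated linearly between surrounding concentrations. Here, GI50 denotes the concentration required for 50% inhibition of growth. TGI is the concentration that stops growth completely.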

Experiments:
Assay in all cases: growth of human tumour cells (NCI), 48 h
[1] = system: NCI-H460 lung
[2] = system: NCI-H522 lung
[3] = system: NCI/ADR-RES ovarian
[4] = system: OVCAR-3 ovarian
[5] = system: OVCAR-4 ovarian
[6] = system: OVCAR-5 ovarian
[7] = system: OVCAR-8 ovarian
[8] = system: PC-3 prostate
[9] = system: RPMI-8226 leukemia
[10] = system: RXF 393 renal
[11] = system: SF-268 CNS
[12] = system: SF-295 CNS
[13] = system: SF-539 CNS
[14] = system: SK-MEL-28 melanoma
[15] = system: SK-MEL-5 melanoma
[16] = system: SK-OV-3 ovarian
[17] = system: SN12C renal
[18] = system: SNB-19 CNS
[19] = system: SNB-75 CNS
[20] = system: SR leukemia
[21] = system: SW-620 colon
[22] = system: T-47D breast
[23] = system: TK-10 renal
[24] = system: U251 CNS
[25] = system: UACC-257 melanoma
[26] = system: UACC-62 melanoma
[27] = system: UO-31 renal

`COc1ccc(C(=O)c2sc3nc(-c4ccccc4OC)ccc3c2N)cc1OC` was tested, and the TGI [1] was greater than 100 µM, the GI50 [2] was 2.5 µM and the TGI [2] was 8.89 µM. For the same compound, the GI50 [3] was 5.05 µM, the TGI [3] was greater than 100 µM and the GI50 [4] was 18.3 µM. The TGI [4] was greater than 100 µM, the GI50 [5] was 7.49 µM and the TGI [5] was greater than 100 µM. It also gave a GI50 [6] greater than 100 µM, a TGI [6] greater than 100 µM and a GI50 [7] of 4.02 µM. It also gave a TGI [7] greater than 100 µM, a GI50 [8] of 2.84 µM and a TGI [8] of 35.1 µM. For the same compound, the GI50 [9] was 2.7 µM, the TGI [9] was greater than 100 µM and the GI50 [10] was 3.42 µM. It also gave a TGI [10] of 70 µM, a GI50 [11] of 11.9 µM and a TGI [11] greater than 100 µM. For the same compound, the GI50 [12] was 4.37 µM, the TGI [12] was 54.3 µM and the GI50 [13] was 20 µM. For the same compound, the TGI [13] was greater than 100 µM, the GI50 [14] was greater than 100 µM and the TGI [14] was greater than 100 µM. The GI50 [15] was 2.05 µM, the TGI [15] was 5.68 µM and the GI50 [16] was 30.6 µM. The TGI [16] was greater than 100 µM, the GI50 [17] was 7.95 µM and the TGI [17] was greater than 100 µM. For the same compound, the GI50 [18] was 22.8 µM, the TGI [18] was greater than 100 µM and the GI50 [19] was 4.34 µM. For the same compound, the TGI [19] was 23.4 µM, the GI50 [20] was 7.3 µM and the TGI [20] was greater than 100 µM. It also gave a GI50 [21] greater than 100 µM, a TGI [21] greater than 100 µM and a GI50 [22] of 2.95 µM. It also gave a TGI [22] greater than 100 µM, a GI50 [23] of 4.87 µM and a TGI [23] of 33.4 µM. The GI50 [24] was 14.2 µM, the TGI [24] was greater than 100 µM and the GI50 [25] was 6.05 µM. For the same compound, the TGI [25] was greater than 100 µM, the GI50 [26] was 4.89 µM and the TGI [26] was greater than 100 µM. The GI50 [27] was 5.26 µM and the TGI [27] was greater than 100 µM.
